Like-named read-outs stand apart in the source and are kept apart here.
Tests used:
[1] = target: bee venom phospholipase A2 (Apis mellifera, UniProt P00630); assay: biochemical; conditions: read-out: IC50 (micromolar), Phospholipase A2 Assay
[2] = Isomerization upon standing; type: physicochemical
[3] = tested on: phosphoinositide-specific phospholipase C; conditions: reported, Bennett et al, Molecular Pharmacology 32:587-593 (1987); cited from earlier work
[4] = prior art; cited from earlier work
Calcium Channel = Calcium Channel (mobilization) Inhibition Assay; type: cell-based
Description: Calcium Channel (mobilization) Inhibition Assay
Polymorphonuclear leukocytes (PMNa), gastric glands, GH3 cells, A431 cells, spleen cells, human keratinocytes corneal cells, etc. were loaded with the Ca^2+ sensitive fluorescent dye, Fura-2. The appropriate cell type was chosen and the potency and efficacy of the anti-inflammatoryfuranones on calcium mobilization, calcium channel inhibition was quantitated. The methods used for A431 cells listed below are representative of those used for other cells.
A431 cells were detached using a 5-10 min trypsin-EDTA treatment whereas GH3 cells were treated 2 to 5 min with a 1% pancreatin solution. Cells were immediately washed twice in a 20 mM HEPES buffer (pH 7.4) containing 120 mM NaCl, 6 mM KCl, 1 mM MgSO4, 1 mg/ml glucose and 1 mg/ml pyruvate and 1.4 mM calcium (medium A). Approximately 5×10^6 cells were suspended in medium A and incubated with 4 uM fura-2-AM for 15 min at 37° C.
After washing the fura-2 loaded cells, the uptake of dye was checked using fluorescence microscopy and found to be evenly distributed in the cytosol of all cells. Fluorescence was continuously recorded with a Perkin-Elmer LS-5 spectrofluorometer. The excitation wavelength was set at 340 nm and emission wavelength set at 500 nm. The cell suspension was continually stirred, maintained at 37° C. and equilibrated for approximately 5 min before addition of various agents. [Ca^2+ i was calculated using the following formula: [formula]
All fluorescence values were measured relative to a EGTA-quenched signal determined as follows: F was the relative fluorescence measurement of the sample. Fmax was determined by lysing the cells with digitonin (100 ug/ml) in DMSO. After Fmax was determined the pH was adjusted to 8, with NaOH and Ca^2+ chelated with 3 mM EGTA to totally quench the fura-2 signal and obtain Fmin.
When quin-2- was used, cells were incubated with 10 uM quin-2- at 37° C. for 1 hour, washed and then used.
In the above-described phospholipase A2 (PLA2) and calcium^+ channel mobilization assays certain examplary compounds made from the synthetic intermediate compounds of the present invention had the following activities.

[5] = read-out: IC50 (umolar) (KCl regulated), Calcium Channel Inhibition Assay
[6] = read-out: IC50 (umolar) (TRH regulated), Calcium Channel Inhibition Assay

bee venom phospholipase A2, sequence (P00630 34-167 limits assumed): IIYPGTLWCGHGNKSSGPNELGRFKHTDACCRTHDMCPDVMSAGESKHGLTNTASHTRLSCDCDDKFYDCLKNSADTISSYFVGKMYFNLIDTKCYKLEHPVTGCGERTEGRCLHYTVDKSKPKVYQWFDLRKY

SMILES | IC50 [1] | also measured
CCCCCCCCCCCCC(NC(=O)C(F)(F)F)C1=CC(=O)OC1O (stereo not drawn) [Compound 30] | 0.06 µM | –
CCCCCCCCCCCCC(NC(=O)NC)C1=CC(=O)OC1O (stereo not drawn) [Compound 32, 4-[-1-(N-methylureido)tridecyl]-5-hydroxy-2(5H)-furanone] | 0.48 µM | –
CCCCCCCCCCCCSCC1=CC(=O)OC1O (stereo not drawn) [Compound 47, 4-Dodecanethiomethyl-5-hydroxy-2(5H)-furanone] | 0.06 µM | –
CCCCCCCCCCCCC(NC(C)=O)C1=CC(=O)OC1O (stereo not drawn) [Compound 29] | 0.07 µM | –
CCCCCCCCCCCCC(NS(C)(=O)=O)C1=CC(=O)OC1O (stereo not drawn) [Compound 31] | 0.05 µM | –
CCCCCCCCCCCCC(OC(=O)Nc1ccccc1)C1=CC(=O)OC1(C)O (stereo not drawn) [Compound 62, 5-Methyl-5-hydroxy-4-(1-phenylcarbamoyloxy)tridecyl-2-furanone] | 0.24 µM | –
CCCCCCCCCCCCOCC1=CC(=O)OC1O (stereo not drawn) [Compound 23] | 0.04 µM | –
CCCCCCCCCCCCC(OC(C)=O)C1=CC(=O)OC1(C)O (stereo not drawn) [Compound 60, 4-(1-Acetoxytridecyl)-5-hydroxy-5-methyl-2-furanone] | 0.06 µM | isomerization of epimers upon standing [2]: isomerizes upon standing
CCOP(=O)(OCC)OCC1=CC(=O)OC1O (stereo not drawn) [Compound 24, 4-1-(Diethylphosphoryloxy)methyl-5-hydroxy-2(5H)-furanone] | 0.34 µM | –
CC1=C(CC/C(C)=C/CCC2=CCC(C3=CC(=O)OC3O)OC2O)C(C)(C)CCC1 (stereo not drawn) [manoalide, reference compound] | – | inhibition of phosphoinositide-specific phospholipase C [3]: inhibition of phosphoinositide-specific phospholipase C; anti-inflammatory, immunosuppressive and analgesic properties [4]: anti-inflammatory,immunosuppressive and analgesic properties; IC50 (Calcium Channel; [5]): 1 µM; IC50 (Calcium Channel; [6]): 1 µM
CCCCCCCCCCCCC(O)C1=CCOC1=O (stereo not drawn) [Compound 71, 3-(1-Hydroxytridecyl)-2(5H)-furanone] | – | IC50 (Calcium Channel; [5]): 1.1 µM; IC50 (Calcium Channel; [6]): 2 µM
CCCCCCCCCCCCP(=O)(O)OCC1=CC(=O)OC1O (stereo not drawn) [Compound 21, 4-(Dodecylohosphonyloxymethyl)-5-hydroxy-2(5H)-furanone] | 0.03 µM | –
CC1=C(CC/C(C)=C/CCC(C=O)=CC=CC2=CC(=O)OC2O)C(C)(C)CCC1 (stereo not drawn) [dehydro-seco-manoalide] | – | anti-inflammatory, immunosuppressive and analgesic properties [4]: anti-inflammatory activity
CCCCCCCCCCCC(=O)NCC(OC(C)=O)C1=CC(=O)OC1O (stereo not drawn) [Compound 41, 4-(1-Acetoxy-2-undecanylamido)ethyl-5-hydroxy-2(5H)-furanone] | 0.04 µM | –
CCCCCCCCCCCC(=O)NCC(O)C1=CC(=O)OC1O (stereo not drawn) [Compound 40, 4-(2-Undecanylamido-1-hydroxy)ethyl-5-hydroxy-2(5H)-furanone] | 0.28 µM | –
CCCCCCCCCCCCNC(=O)NCC1=CC(=O)OC1O (stereo not drawn) [Compound 26, 4-(N-Dodecylureido)methyl-5-hydroxy-2(5H)-furanone] | 0.13 µM | –

SMILES | IC50 [1] | also measured
CCCCCCCCC(OC(C)=O)C1=CCOC1=O (stereo not drawn) [Compound 70, 3-(1-Acetoxynonyl)-2(5H)-furanone] | – | IC50 (Calcium Channel; [5]): 3.4 µM; IC50 (Calcium Channel; [6]): 4.9 µM
CCCCCCCCCCCCC(OC(C)=O)C1=C(C)C(=O)OC1O (stereo not drawn) [Compound 61, 4-(1-Acetoxytridecyl)-3-methyl-5-hydroxy-2(5H)-furanone] | > 1 µM | –
CCCCCCCCCCCC(=O)OC(CNC(=O)N(CC)CC)C1=CC(=O)OC1O (stereo not drawn) [Compound 46, 4-[1-Dodecanoyloxy-2-(N',N'-diethyl)carboxyamido]ethyl-5-hydroxy-2(5H)-furanone] | 0.02 µM | –
CCCCCCCCOC(=O)C=CC1=CC(=O)OC1O (stereo not drawn) [Compound 51, Octyl 3-(5-hydroxy-2-on-4-furyl)propen-2-oate] | 0.09 µM | –
CCCCCCCCCCCC(=O)OC(CNC(=O)N1CCN(S(C)(=O)=O)CC1)C1=CC(=O)OC1O (stereo not drawn) [Compound 45] | 0.05 µM | –
CCCCCCCCCCCCNC(=O)OCC1=CC(=O)OC1O (stereo not drawn) [Compound 22, 4-(N-Dodecylcarbamoyloxymethyl)-5-hydroxy-2(5H)-furanone] | 0.05 µM | –
CCCCCCCCCCCC(=O)NCC(OC(=O)CCCCCCCCCCC)C1=CC(=O)OC1O (stereo not drawn) [Compound 42, 4-(2-Undecanylamido-1-dodecanoyloxy)ethyl-5-hydroxy-2(5H)-furanone] | 0.03 µM | –
CCCCCCCCCCCC(=O)NCC1=CC(=O)OC1O (stereo not drawn) [Compound 25, 4-(N-Dodecanoylaminomethyl)-5-hydroxy-2(5H)-furanone] | 0.26 µM | –
CC1=C(CC/C(C)=C/CCC(C=O)=CCC(O)C2=CC(=O)OC2O)C(C)(C)CCC1 (stereo not drawn) [seco-manoalide] | – | anti-inflammatory, immunosuppressive and analgesic properties [4]: anti-inflammatory activity
CCCCCCCCCCCCS(=O)(=O)NCC(OC(C)=O)C1=CC(=O)OC1O (stereo not drawn) [Compound 43, 4-[1-Acetoxy-2-(dodecanesulfonylamido)ethyl]-5-hydroxy-2(5H)-furanone] | 0.03 µM | –
CCCCCCCCCCCC(=O)OCCCC1=CC(=O)OC1O (stereo not drawn) [Compound 50] | 0.5 µM | –
COCCOCOCC1=CC(=O)OC1O (stereo not drawn) [Compound 20] | > 1 µM | –
CCCCCCCCCCCCC(OC(C)=O)C1=CCOC1=O (stereo not drawn) [Compound 72, 3-(1-Acetoxytridecyl)-2(5H)-furanone] | – | IC50 (Calcium Channel; [5]): 0.88 µM; IC50 (Calcium Channel; [6]): 16.9 µM
CCCCCCCCCCCCS(=O)(=O)NCC1=CC(=O)OC1O (stereo not drawn) [Compound 27, 4-(N-Dodecylsulfonamido)-methyl-5-hydroxy-2(5H)-furanone] | 0.04 µM | –
CC(=O)OC(CNC(=O)CCCCCCCCCCC(=O)O)C1=CC(=O)OC1O (stereo not drawn) [Compound 44] | 0.09 µM | –
CCCCCCCCCCCCC(OC(C)=O)C1=CC(=O)OC1O (stereo not drawn) [Compound 28, 4(1-Acetoxytridecyl)-5-hydroxy-2(5H)-furanone] | 0.04 µM | –
